US7229757B2, “Compounds displayed on icosahedral phage and methods of using same” (Xenoport, Inc., priority 2001, dated 2007)

Molecular target: T1, human folate receptor (Homo sapiens, UniProt P15328)
T1 construct: KB cells, which express high levels of the human folate receptor; endogenous in cells; host or cells: KB cells
Test: screening of the 36-member folate analog library on T7 phage for uptake into KB cells
Assay type: cell-based
Settings: compound displayed on T7 phage
Description: KB cells were grown adherently in folate-free RPMI with 5% fetal bovine serum in a T75 flask. Prior to screening the compound library the media was removed and replaced with folate-free RPMI containing 0.1% BSA. An aliquot of the folate-analog phage library (˜10^9 pfu) was added to the flask containing 10^7 KB cells and incubated for 2 h at 37° C. Following the incubation period, the cells were detached from the flask by adding PBS containing 5 mM EDTA and incubating for 5 minutes at 37° C. The cell suspension was transferred to a tube and cells were pelleted by centrifugation. The cells were washed 3× with PBS followed by a single wash with “stripping” buffer (50 mM glycine, pH 2.8, 500 mM NaCl, 2M urea, 2% polyvinylpyrolidone) to remove phage particles that were both specifically and non-specifically bound to the surface of the cells. The cell suspension was neutralized by the addition of one half volume of 1 M Tris and centrifuged to pellet the cells. Cells were then lysed with PBS containing 1% SDS to recover phage that were endocytosed. To determine the number of recovered phage particles the lysate was titered by preparing a series of dilutions, infecting BL21 cells and plating on LB agar plates. The plates were incubated for 2-3 h at 37° C. until plaques were clearly visible. […]

T1 sequence (P15328 25-234): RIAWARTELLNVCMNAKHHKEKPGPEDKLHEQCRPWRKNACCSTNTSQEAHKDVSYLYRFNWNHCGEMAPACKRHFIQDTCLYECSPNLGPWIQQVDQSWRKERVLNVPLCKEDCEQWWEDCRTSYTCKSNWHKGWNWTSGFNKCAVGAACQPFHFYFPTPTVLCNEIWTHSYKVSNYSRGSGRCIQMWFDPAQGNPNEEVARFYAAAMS

share of sequenced random clones from the lysate carrying the clone's DNA tag (21 sequences): 38% | enrichment of phage clone in the population recovered from the cell lysate (hybridization to library archive array) (2 h at 37° C.): the only one enriched
Compound: NNC(=O)COCCOCCNC(=O)CCC(NC(=O)c1ccc(NCc2cnc3nc(N)nc(O)c3n2)cc1)C(=O)O (centres unmarked) [folate-hydrazide, Folate-hydrazide]
